The values that follow come from patent publication US20250127162A1, “METHODS AND COMPOSITIONS FOR CONTROLLING PESTS IN RICE” (Globachem NV, priority 2022, published 2025).

The assay has as its system Diabrotica speciosa. Nature of the assay: Dry bean field trials, Diabrotica speciosa damage and yield (Example 4). Type of assay: in vivo. The note with it: 150 L water/ha, two applications 7 d apart; for % Damage, % UNCK: 28 DAB, Lambda-cyhalothrin 100 at 0.15 L/ha; for Yield: plot. The text has this:
All applications were made with an EC formulation containing 650 g/L of pelargonic acid (e.g., 685 g/L of 95% purity pelargonic acid), an anionic emulsifier and a branched fatty acid ester solvent.
Diabrotica speciosa is a major pest in rice.
Dry Beans—Diabrotica speciosa

Molecules are shown by their SMILES.

As for `CC1(C)[C@H](C(=O)O[C@H](C#N)c2cccc(Oc3ccccc3)c2)[C@@H]1/C=C(\Cl)C(F)(F)F` (racemic) [Lambda-cyhalothrin 100, Lambda-cyhalothrin, reference compound], the “% Damage, % UNCK” value reads like this: (Trial 1, dry bean) 80.55b % UNCK; (Trial 2, dry bean) 81.41c % UNCK. Further, the Yield is 2.55a Ton/ha (Trial 1, dry bean) and 2.29ab Ton/ha (Trial 2, dry bean).
